Reference: US20050256177A1, “Phenyl derivatives for the treatment of abnormal cell growth” (Pfizer Inc, priority 2004, published 2005)

Assays:
[1] = Metabolite profiling after single oral dose of [14C]-labelled parent drug in healthy male subjects; assay type: in vivo, human; conditions: for presence in HPLC-radiochromatogram of human fecal metabolites: human feces; for presence in HPLC-radiochromatogram of human fecal metabolites / presence in HPLC-radiochromatogram of human urinary metabolites / presence in HPLC-radiochromatogram of circulating metabolites: single 100 mg oral dose of labelled compound; for matrices in which the metabolite was detected (humans) / presence in HPLC-radiochromatogram of human urinary metabolites: human urine; for matrices in which the metabolite was detected (humans): feces, plasma; for presence in HPLC-radiochromatogram of circulating metabolites: human plasma
Experimental: Four normal healthy male subjects between the ages of 26 and 55 years participated in the study. The subjects entered the Clinical Research Facility 12 hours before dosing, and remained there for up to 384 hours after dosing under continuous medical observation. All subjects had fasted at least 8 hours and were given a single 100 mg oral dose of the labeled compound (˜93 μCi/subject). The dose was administered in an open fashion in the morning. A standard meal was provided 4 hours later. The dosing formulation was prepared by dissolving the radiolabeled material in citrate buffered vehicle that was prepared by adding 100 ml of water to a 4 oz. amber bottle containing a dry powder blend of citric acid and sodium citrate. Total volume of dosage given was 240 ml.
After dosing, urine samples were collected for up to 16 days between the following time points: 0-12, 12-24, 24-48, 48-72, 72-96, 96-120, 120-144, 144-168, 168-192, 192-216, 216-240, 240-264, 264-288, 288-312, 312-336, 336-360 and 360-384 hours post-dose (i.e., first sample collected between 0-12 hours, second sample collected between 12-24 hours, and so on). The total volume of the urine samples was recorded after each collection. Feces were collected as passed, from time of dosing until 384 hours after dosing.
Blood sufficient to provided a minimum of 7 ml of plasma was collected, in heparinized tubes, from each subject at 0 (just before dosing), 1, 2, 4, 6, 8, 10, 12, 16, 24, 48, 72, 96, 120, 144 and 168 hours after the dose. Within 1 hour after collection, the blood samples were centrifuged in a refrigerated centrifuge and plasma was separated from whole blood. Samples collected over the first 168 hours post-dose were divided into two aliquots (3 ml and 4 ml). The 3 ml aliquots were used for the quantitation of unchanged 3-(4-bromo-2,6-difluoro-benzyloxy)-5-[3-(4-pyrrolidin-1-yl-butyl)-ureido]-isothiazole-4-carboxylic acid amide The other 4 ml aliquots were used for the analysis of total radioactivity. For metabolite identification, blood sufficient to yield 20 ml of plasma was collected at 4, 6, 8, 12, 16 and 24 hours after the dose. All samples were labeled, immediately frozen, and stored at −20° C. until analysis.
Radioactivity in urine, feces, and plasma was measured by liquid scintillation counting. All samples were counted in a Wallac 1409 liquid scintillation counter with quench correction determined by monitoring the Compton edge of the external gamma source. Radioactivity less than twice the background value of the pre-dose matrix was considered to be below the limit of quantification.
Urine samples obtained between the following time points were pooled for each subject: 0-12, 12-24, 24-48, 48-72 hours after the dose (i.e., first sample collected between 0-12 hours, second sample collected between 12-24 hours, and so on). The pooled samples (˜100 ml) were lyophilized overnight. The residues were extracted with methanol twice (10 and 5 ml). The supernatants were combined and 0.2 ml aliquots were counted in a liquid scintillation counter to determine the extraction efficiency. The supernatants were evaporated to dryness in a Turbo Vap LV evaporator. The residues were reconstituted with 1 ml of MeOH. Aliquots (50 μl) were injected onto the HPLC column without further purification.
Fecal homogenates were pooled (up to 0-264 hours) for each subject. The pooled samples (˜10 g) were suspended in 25 ml of acetonitrile. The suspensions were sonicated for 10 min, then stirred on a magnetic stirrer for 1 hour and centrifuged. Supernatants were separated and the residues further extracted with 25 ml of acetonitrile. The two supernatants were combined and 1 ml aliquots were counted in a scintillation counter to determine the extraction efficiency. The organic solvents were evaporated to dryness in a Turbo Vap LV evaporator and the residues were reconstituted in 1 ml of MeOH:water (50:50). Aliquots (100 μl) of concentrated fecal extracts were injected onto the HPLC column. […]

[2] = Metabolite detection in beagle dogs, methods similar to those used for human samples; assay type: in vivo; conditions: dog urine, feces, bile, plasma
[3] = Metabolite detection in Sprague-Dawley rats, methods similar to those used for human samples; assay type: in vivo; conditions: rat urine, feces, bile, plasma

NC(=O)c1c(OCc2c(F)cc(Br)cc2F)nsc1NC(=O)NCCCCNCCCC(=O)O [Metabolite M1, 4-(4-{3-[3-(4-bromo-2,6-difluoro-benzyloxy)-4-carbamoyl-isothiazol-5-yl]-ureido}-butylamino)-butyric acid]
presence in HPLC-radiochromatogram of human fecal metabolites [1]: presence
matrices in which the metabolite was detected (humans) [1]: detected in urine and feces of humans
presence in HPLC-radiochromatogram of human urinary metabolites [1]: presence

NC(=O)c1c(OCc2c(F)cc(Br)cc2F)nsc1NC(=O)NCCCCN1CC=CC1=O [Metabolite M8, 3-(4-bromo-2,6-difluoro-benzyloxy)-5-{3-[4-(2-oxo-2,5-dihyro-pyrrol-1-yl)-butyl]-ureido}-isothiazole-4-carboxylic acid amide]
matrices in which the metabolite was detected (beagle dogs) [2]: detected in feces, bile and plasma of beagle dogs
matrices in which the metabolite was detected (rats) [3]: detected in feces, bile and plasma of beagle dogs and Sprague-Dawley Rats

O=C(O)c1c(F)cc(Br)cc1F [Metabolite M4, 4-bromo-2,6-difluorobenzoic acid]
presence in HPLC-radiochromatogram of circulating metabolites [1]: presence
matrices in which the metabolite was detected (humans) [1]: detected in urine and plasma
presence in HPLC-radiochromatogram of human urinary metabolites [1]: presence
matrices in which the metabolite was detected (rats) [3]: found in rat urine

CC(=O)NC(CSCc1c(F)cc(Br)cc1F)C(=O)O (stereo not shown) [Metabolite M5, 2-Acetylamino-3-(4-bromo-2,6-difluoro-benzylsulfanyl)-propionic acid]
matrices in which the metabolite was detected (humans) [1]: detected in urine of humans
presence in HPLC-radiochromatogram of human urinary metabolites [1]: presence
matrices in which the metabolite was detected (beagle dogs) [2]: detected in urine of humans and beagle dogs

NC(=O)c1c(OCc2c(F)cc(Br)cc2F)nsc1NC(=O)NCCCCN1CCCC1 [3-(4-Bromo-2,6-difluoro-benzyloxy)-5-[3-(4-pyrrolidin-1-yl-butyl)-ureido]-isothiazole-4-carboxylic acid amide, reference compound]
presence in HPLC-radiochromatogram of human fecal metabolites [1]: presence
presence in HPLC-radiochromatogram of circulating metabolites [1]: presence
presence in HPLC-radiochromatogram of human urinary metabolites [1]: presence

NC(=O)c1c(OCc2c(F)cc(Br)cc2F)nsc1NC(=O)NCCCC[N+]1([O-])CCCC1 [Metabolite M2, 3-(4-bromo-2,6-difluoro-benzyloxy)-5-[3-(4-pyrrolidin-1-yl-N-oxide-butyl)-ureido]-isothiazole-4-carboxylic acid amide]
matrices in which the metabolite was detected (humans) [1]: detected in urine of humans
presence in HPLC-radiochromatogram of human urinary metabolites [1]: presence
matrices in which the metabolite was detected (beagle dogs) [2]: in urine, feces, bile and plasma of Beagle dogs

NC(=O)c1c(OCc2c(F)cc(Br)cc2F)nsc1NC(=O)NCCCC(=O)O [Metabolite M9, 4-{3-[3-(4-bromo-2,6-difluorobenzyloxy)-4-carbamoyl-isothiazol-5-yl]-ureido}-butyric acid]
presence in HPLC-radiochromatogram of human fecal metabolites [1]: presence
presence in HPLC-radiochromatogram of circulating metabolites [1]: presence
matrices in which the metabolite was detected (humans) [1]: detected in feces and plasma
matrices in which the metabolite was detected (beagle dogs) [2]: found in dog feces
